pIC50, pKd: −log10 of the molar value. {PEG30K} = 30 kDa polyethylene glycol, attached through the amine; {3T} = T cap; {PEG20K} = 20 kDa polyethylene glycol; [invdT] = inverted (3'-3') thymidine; {NH2} = amine group; m = 2'-O-methyl; r = 2'-OH (RNA); f = 2'-fluoro
What was measured:
PDGF AB and BB = assay: PDGF binding (Kd); parameters: species or system human; conditions: read-out: Kd, PDGF AB and BB
TGFβ2 [1] = target: T1, TGFβ2 (Homo sapiens, UniProt P61812); assay: Dot blot binding of doped reselection aptamers to TGFβ2; parameters: For bio-chemical characterization of these aptamers, two forms of mature TGFβ2 were generated, native and N-terminal his-tagged versions, in E. coli; conditions: CW128_103
T1 sequence (P61812 303-414 limits assumed): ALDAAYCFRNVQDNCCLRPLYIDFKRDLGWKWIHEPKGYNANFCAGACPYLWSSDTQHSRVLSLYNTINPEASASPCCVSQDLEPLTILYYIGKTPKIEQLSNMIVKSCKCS
Method: TGFβ2 was serially diluted in DPBS containing 0.2 mg/ml BSA and 0.2 mg/ml tRNA. ^32P-labeled RNA (<20 pM) were incubated with TGFβ2 at room temperature for 30 min. Samples were pipetted with a multichannel pippetor onto a multiwell manifold holding layers of pre-wetted 0.45 micron nitrocellulose, hybond membrane, 3MM filter paper (the order is from top to bottom), aspirated, and washed 3× with DPBS (containing tRNA). All three filters were air dried, exposed to phosphorimager plate, analyzed by ImageQuant.

[2] = Pharmacokinetics via subconjunctival administration; type: in vivo, mice; conditions: for AUC (0-t) / Cmax / MRT / TLAST / t1/2 / tmax / Vd: subconjunctival, 1 mg/eye bilaterally; for detection in the aqueous humor: after subconjunctival administration
Method: A pharmacokinetic study was performed to determine the pharmacokinetics of ARC81, ARC117 and ARC119, TGFβ2 aptamers having the sequences of SEQ ID NOs:4, 9 and 11, respectively), via subconjunctival administration in mice. These aptamers were formulated at a concentration of 10 mg/ml. Samples were collected at 0, 0.5, 1, 2, 6, 12, 24, 48 and 96 hours post-administration. FIGS. 21A, 21B and 21C show the aqueous humor and/or plasma concentration of each aptamer (in nM) through 50 hours post dose via subconjunctival administration.

TGFβ2 [3] = target: T1, TGFβ2; assay: Nitrocellulose-filter partitioning binding of 32P-labeled aptamer to TGFβ-2 protein; parameters: A synthetic polynucleotide encoding full length human TGFβ2 mature protein was cloned into pRSET E. coli expression vector; made in house
Method: Dissociation constants for the binding of aptamers to purified human or rodent TGFβ-2 protein were determined by nitrocellulose-filter partitioning using ^32P-labeled RNA. In vitro transcribed RNA was treated with calf-intestinal alkaline phophatase (New England Biolabs) to remove 5′-triphosphates, then radio-labeled by incubation with γ-^32P-ATP and T4 polynucleotide kinase (New England Biolabs). Unincorporated label was removed by gel-filtration, and the RNAs were further purified by polyacrylamide gel electrophoresis (PAGE). Purified ^32P-labeled aptamer in water was refolded just prior to use by heating for 3 min at 95° C., followed by a 10 minute room-temperature incubation in binding buffer (50 mM Hepes, pH 7.4, 1 mM MgCl2, 1 mM CaCl2, 3 mM KCl, 140 mM NaCl, 0.1 mg/ml BSA, 0.01 mg/ml tRNA). The binding reactions (100 μL) were initiated by the addition of aptamer (≦0.1 nM) to excess TGFβ-2 protein (0.2-100 nM), followed by 10-30 minute equilibration at room temperature.
Nitrocellulose-filter partitioning was performed on Minifold® I, 96-well Dot-Blot manifolds (Schleicher & Schuell). Protein-bound aptamer and residual free aptamer were captured, respectively, on pre-wetted Protran nitrocellulose (Schleicher & Schuell) and Hybond-P polyvinylidene difluoride (Amersham Biosciences) filters by vacuum aspiration, and quantified by PhosphorImager (Amersham Biosciences). The proportion of protein-bound aptamer at each TGFβ-2 concentration was plotted as the ratio of counts-per-minute on the Protran nitrocellulose filter (CPMNC) to the sum of CPM on the Protran and Hybond-P filters (CPMtotal). Estimates of dissociation constants (KD) were obtained from a fit of the concentration of TGFβ-2 (i.e., [TGFβ-2])-dependent data to a standard binding isotherm: CPMNC/CPMtotal=Cmax/(1+KD/[TGFβ2]total), where Cmax equals the maximum observed value of CPMNC/CPMtotal at saturating [TGFβ-2], likely reflecting the proportion of properly-folded aptamer that is competent to recognize TGFβ-2.

human TGFβ2 = target: T2, human TGFβ2 (Homo sapiens, UniProt P61812); assay: MLEC proliferation assay (reversal of TGFβ2-mediated inhibition, BrdU); type: cell-based
T2 construct: two forms of mature TGFβ2 were generated, native and N-terminal his-tagged versions, in E. coli; made in house; host or cells: E. coli; added as soluble protein to MLEC
T2 sequence (P61812 303-414): T1 sequence (P61812 303-414 limits assumed)
Method: MLECs were plated at 2,000 cells per well and incubated at 37° C. for 4 hours. Aptamer and TGFβ2 were added at the indicated concentrations for 16 hours at 37° C. Cell proliferation was measured using BrdU incorporation. BrdU assay was performed as recommended by the manufacturer (Roche Diagnostics).
MLEC Assay. The mink lung epithelial cell proliferation assay is performed over two days. On day 1:1) media is aspirated off from Mink Lung Epithelial Cells (MLEC); 2) the MLEC are washed with 10 ml 1×PBS; 3) 3 ml Trypsin is added and Trypsinize for 3 min at 37° C.; 4) quench with 10 ml 0.5% FBS media; 5) spin at 1000 rpm for 3.30 min; 6) aspirate off supernatant; 7) resuspend pellet in 10 ml 0.5% FBS media; 8) Count 10 μl cell suspension; 9) adjust cell density to 80,000 cells/ml; 10) add 50 μl of cells/well to black bottomed 96-well plates (4000 cells/well); pipet up and down during plating process to avoid settling of cells and uneven plating; 11) incubate cells at 37° C. in 5% CO2 for 4 hrs to allow adherence of cells; 12) add 25 μl of aptamer (or media, or other test reagent, such as for example, an antibody), preferably the outer wells are not used for treated cells; 13) add 25 μl of TGFβ2 (typically 25 pg/ml); and 14) incubate cells at 37° C. in 5% CO2 overnight.
On day 2:1) mix 20 μl BrdU with 2 ml 0.5% FBS media; 2) add 10 μl of BrdU mixture/well; 3) incubate cells at 37° C. in 5% CO2 for 3 hrs; 4) remove media and blot plates dry on paper towels; 5) add 200 μl/well FixDenat solution and incubate for 30 min at room temperature (RT); 6) remove FixDenat solution and blot plates dry on paper towels; 7) add 100 μl /well anti-BrdU POD solution and incubate for 90 min at RT; 8) remove anti-BrdU POD solution and blot plates dry on paper towels; 9) wash plates 3× with […] washing solution with 5 min RT incubations and blot plates dry on paper towels; 10) add 100 μl /well substrate solution and incubate for 3 min at RT in dark; and 11) read plates using PSP Luciferace 1 program on TopCount (Packard Bioscience Co., Downers Grove, Ill.).

Chain of PDGF AB and BB (P01127 82-190 limits assumed): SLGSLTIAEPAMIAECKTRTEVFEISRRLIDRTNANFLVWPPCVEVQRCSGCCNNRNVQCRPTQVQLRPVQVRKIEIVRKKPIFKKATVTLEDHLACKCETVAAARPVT

## 5′-dCdAdCdAdGdGdCTdAdCdGdGdCdAdCdGTdAdGdAdGdCdATdCdAdCdCdATdGdATdCdCTdGTdG-3T-3′ (CACAGGCTACGGCACGTAGAGCATCACCATGATCCTGTG; 3' [invdT], sugars by position and backbone not given here; further chemistry not fully specified) [ARC124]
PDGF AB and BB
  pKd: 10.00

## AfUAGAGfCAfUfUAfUAGAGfUAfUGfUAfUAGfCfUAfUAfCfUAfU[3T] (AUAGAGCAUUAUAGAGUAUGUAUAGCUAUACUAU; 2'-fluoro at CU, RNA at AG, 3' {3T}, backbone not given here) [CW128.10.F, minimized AMX(71)_C11]
TGFβ2 [1]
  pKd: 8.44

## 5′-TdAdCTdCdAdGdGdGdCdAdCTdGdCdAdAdGdCdAdATTdGTdGdGTdCdCdCdAdATdGdGdGdCTdGdAdGTdA-3T-3′ (TACTCAGGGCACTGCAAGCAATTGTGGTCCCAATGGGCTGAGTA; 3' [invdT], sugars by position and backbone not given here; further chemistry not fully specified) [ARC125]
PDGF AB and BB
  pKd: 10.00

## AAGGAGfUAfUfUAfUAGAGfUAfUGfUAfUAGfCfUAfUAfCfCAfU[3T] (AAGGAGUAUUAUAGAGUAUGUAUAGCUAUACCAU; 2'-fluoro at CU, RNA at AG, 3' {3T}, backbone not given here) [ARC281, minimized S5CR12-15]
TGFβ2 [1]
  pKd: 8.85

## 5′-[PEG30K]-NH2-mGmGmGmGfUfUAfUfUmAfCmAmGmAmGfUfCfUGfUAfUAmGfCfUmGfUmAfCfCfC-3T-3′ (GGGGUUAUUACAGAGUCUGUAUAGCUGUACCC; sugars from the 5' end mmmmffrffmfmmmmfffrfrfrmffmfmfff, 5' {PEG30K}-{NH2}, 3' {3T}, backbone not given here) [ARC119]
[2]; Aq Humour
  AUC (0-t): 133.2 nM·h
  Cmax: 28.4 nM
  MRT: 12.80 h
  TLAST: 48 h
  t1/2: 17.52 h
  tmax: 0.5 h
[2]; PLASMA
  AUC (0-t): 13,380.5 nM · h
  Cmax: 721 nM
  MRT: 17.28 h
  TLAST: 48 h
  Vd: 137 mL
  t1/2: 6.94 h
  tmax: 12 h
[2]
  detection in the aqueous humor: detected in the aqueous humor

## GAfCAGAGfUAfUfUAfUAGAGfUAfUGfUAfUAGfCfUAfUAfCfUGfU[3T] (GACAGAGUAUUAUAGAGUAUGUAUAGCUAUACUGU; 2'-fluoro at CU, RNA at AG, 3' {3T}, backbone not given here) [ARC284, minimized S5R8-45]
TGFβ2 [1]
  pKd: 9.96

## AGGGAAfUAfUfUAfUAGAGfUAfUGfUAfUAGfCfUAfUAfCfCAfU[3T] (AGGGAAUAUUAUAGAGUAUGUAUAGCUAUACCAU; 2'-fluoro at CU, RNA at AG, 3' {3T}, backbone not given here) [ARC282, minimized AMX(71)_A8]
TGFβ2 [1]
  pKd: 9.21

## 5′-TdGdGdGdAdGdGdGdCdGdCdGTTdCTTdCdGTdGdGTTdAdCTTTTdAdGTdCdCdCdG-3T-3′ (TGGGAGGGCGCGTTCTTCGTGGTTACTTTTAGTCCCG; 3' [invdT], sugars by position and backbone not given here; further chemistry not fully specified) [ARC123]
PDGF AB and BB
  pKd: 10.00

## AfCAGAGfUAfUfUAfUAGAGfUAfUGfUAfUAGfCfUAfUAfCfUGfUfC[3T] (ACAGAGUAUUAUAGAGUAUGUAUAGCUAUACUGUC; 2'-fluoro at CU, RNA at AG, 3' {3T}, backbone not given here) [ARC283, minimized S5CR8-45]
TGFβ2 [1]
  pKd: 8.90

## 5′-[PEG20K]-NH2-mGmGmGmGfUfUAfUfUmAfCmAmGmAmGfUfCfUGfUAfUAmGfCfUmGfUmAfCfCfC-3T-3′ (GGGGUUAUUACAGAGUCUGUAUAGCUGUACCC; sugars from the 5' end mmmmffrffmfmmmmfffrfrfrmffmfmfff, 5' {PEG20K}-{NH2}, 3' {3T}, backbone not given here; PEG attached through 5' amine linker) [ARC117]
[2]; Aq Humour
  AUC (0-t): 87.6 nM·h
  Cmax: 22.9 nM
  MRT: 3.62 h
  TLAST: 24 h
  t1/2: 4.33 h
  tmax: 1 h
[2]; PLASMA
  AUC (0-t): 1,122.1 nM · h
  Cmax: 145 nM
  MRT: 9.22 h
  TLAST: 48 h
  Vd: 1760 mL
  t1/2: 7.40 h
  tmax: 6 h
[2]
  detection in the aqueous humor: detected in the aqueous humor

## 5′-NH2-GGAGGfUfUAfUfUAfCAGAGfUfCfUGfUAfUAGfCfUGfUAfCfUfCfC-3T-3′ (GGAGGUUAUUACAGAGUCUGUAUAGCUGUACUCC; 2'-fluoro at CU, RNA at AG, 5' {NH2}, 3' {3T}, backbone not given here) [ARC78]
TGFβ2 [3]; 32P-labeled aptamer, nitrocellulose-filter partitioning, fit to Equation 1, read-out: Kd
  pKd: 8.40
Human TGFβ2; 50 pg/ml of TGFβ2, BrdU incorporation
  inhibition of the antiproliferative effects of TGFβ2: inhibit the antiproliferative effects of 50 pg/ml of TGFβ2

## 5′-mGmGmAmGmGfUfUAfUfUmAfCmAmGmAmGfUfCfUGfUAfUAmGfCfUmGfUmAfCfUfCfc-3T-3′ (GGAGGUUAUUACAGAGUCUGUAUAGCUGUACUCC; sugars from the 5' end mmmmmffrffmfmmmmfffrfrfrmffmfmffff, 3' {3T}, backbone not given here) [ARC79]
TGFβ2 [3]; read-out: KD
  pKd: 9.00
Human TGFβ2; read-out: cell IC50
  pIC50: 8.00
